According to patent US20160158200A1, “Combinations of Hepatitis C Virus Inhibitors” (priority 2013, published 2016):

System: HCV genotype-1a variant with glutamine 30 changed to glutamate in the NS5A protein
Assay type: cell-based
Settings: test compound titrated with BMS-790052 fixed at 200 nM; genotype 1a Q30E replicon
In short: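 Synergy was assessed by combining several fixed amounts of an NS5A-targeting compound with a titration of the second compound of interest.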

| Structure (SMILES) | Fold-Synergistic 1a (Q30E) [fold] |
| --- | --- |
| CC(C)[C@H](NC(=O)C(c1ccccc1)c1ccccc1)c1ncc(-c2ccc(-c3ccc(-c4cnc([C@@H](NC(=O)C(c5ccccc5)c5ccccc5)C(C)C)[nH]4)cc3)cc2)[nH]1 [Compound S-12] | >100 |
| CC(C)[C@H](NC(=O)[C@H](NC(=O)OCC(C)(C)C)C(C)C)c1ncc(-c2ccc(-c3ccc(-c4cnc([C@@H](NC(=O)[C@H](NC(=O)OCC(C)(C)C)C(C)C)C(C)C)[nH]4)cc3)cc2)[nH]1 [Compound S-253] | >100 |
| CC1([C@H](NC(=O)C(C)(C)C(C)(C)O)c2ncc(-c3ccc(-c4ccc(-c5cnc([C@@H](NC(=O)C(C)(C)C(C)(C)O)C6(C)CC6)[nH]5)cc4)cc3)[nH]2)CC1 [Compound B148] | >100 |
| CCOC(=O)C1(C(=O)N[C@H](c2nc(-c3ccc(-c4ccc(-c5c[nH]c([C@@H](NC(=O)C6(C(=O)OCC)CCCCC6)C(C)(C)C)n5)cc4)cc3)c[nH]2)C(C)(C)C)CCCCC1 [Compound N-146] | >100 |
| COC(C)(CCO)C(=O)N[C@H](c1nc(-c2ccc(-c3ccc(-c4c[nH]c([C@@H](NC(=O)C(C)(CCO)OC)C(C)(C)C)n4)cc3)cc2)c[nH]1)C(C)(C)C (single isomer, unassigned) [Compound W-257] | >100 |
| CC(C)(C)[C@H](NC(=O)c1cccc(Cl)c1)c1ncc(C#Cc2ccc3cc(-c4cnc([C@@H](NC(=O)c5cccc(Cl)c5)C(C)(C)C)[nH]4)ccc3c2)[nH]1 [Compound B3] | >100 |
| CC1([C@H](NC(=O)C2CCC(F)(F)CC2)c2nc3ccc(C#Cc4ccc5nc([C@@H](NC(=O)C6CCC(F)(F)CC6)C6(C)CC6)[nH]c5c4)cc3[nH]2)CC1 [Compound B67] | >100 |
| CC1(C(O)C(C)(C)C(=O)N[C@H](c2nc(-c3ccc(-c4ccc(-c5c[nH]c([C@@H](NC(=O)C(C)(C)C(O)C6(C)CC6)C(C)(C)C)n5)cc4)cc3)c[nH]2)C(C)(C)C)CC1 (single isomer, unassigned) [Compound N-151A] | >100 |
| CC(C)[C@H](NC(=O)C(C)(C)C)c1ncc(-c2ccc3cc4cc(-c5cnc([C@@H](NC(=O)C(C)(C)C)C(C)C)[nH]5)ccc4cc3c2)[nH]1.O=C(O)C(F)(F)F [Compound B30] | >100 |
| CC(C)(C)[C@H](NC(=O)C(C)(C)N1CCOCC1)c1nc(-c2ccc(-c3ccc(-c4c[nH]c([C@@H](NC(=O)C(C)(C)N5CCOCC5)C(C)(C)C)n4)cc3)cc2)c[nH]1 [Compound Q-7] | >100 |
| CC(C)C(=O)N[C@H](c1ncc(-c2ccc(-c3ccc(-c4cnc([C@@H](NC(=O)C(C)C)C(C)C)[nH]4)cc3)cc2)[nH]1)C(C)C [Compound S-7] | >100 |
| CC(C)(Oc1ccccc1F)C(=O)N[C@H](c1nc(-c2ccc(-c3ccc(-c4c[nH]c([C@@H](NC(=O)C(C)(C)Oc5ccccc5F)C(C)(C)C)n4)cc3)cc2)c[nH]1)C(C)(C)C [Compound Y-4] | >100 |
| CC(C)(C)C(NC(=O)C1(C)CC1(F)F)c1nc(-c2ccc(-c3ccc(-c4c[nH]c(C(NC(=O)C5(C)CC5(F)F)C(C)(C)C)n4)cc3)cc2)c[nH]1 (single isomer, unassigned) [Compound L-58b] | >100 |
| CC(C)(C(=O)N[C@H](c1ncc(-c2ccc(-c3ccc(-c4cnc([C@@H](NC(=O)C(C)(C)C5CCCC5)C(C)(C)C)[nH]4)cc3)cc2)[nH]1)C(C)(C)C)C1CCCC1 [Compound B82] | >100 |
| CC(OC(=O)NC1(C(=O)NC(c2nc(-c3ccc(-c4ccc(-c5c[nH]c(C(NC(=O)C6(NC(=O)OC(C)C(F)(F)F)CC6)C6(C)CC6)n5)cc4)cc3)c[nH]2)C2(C)CC2)CC1)C(F)(F)F [Compound L-42] | >100 |
| COCCC(=O)N[C@H](c1ncc(-c2ccc(-c3ccc(-c4cnc([C@@H](NC(=O)CCOC)C(C)C)[nH]4)cc3)cc2)[nH]1)C(C)C [Compound S-51] | >10 |
| CN(C(=O)OCCF)C(C)(C)C(=O)N[C@H](c1nc(-c2ccc(-c3ccc(-c4c[nH]c([C@@H](NC(=O)C(C)(C)N(C)C(=O)OCCF)C(C)(C)C)n4)cc3)cc2)c[nH]1)C(C)(C)C [Compound L-20] | >100 |
| CC(O)C(C)(C)C(=O)N[C@H](c1ncc(-c2ccc(-c3ccc(-c4cnc([C@@H](NC(=O)C(C)(C)C(C)O)C(C)(C)C)[nH]4)cc3)cc2)[nH]1)C(C)(C)C (single isomer, unassigned) [Compound B76] | >100 |
| CC(C)(C)[C@H](NC(=O)C1CC(F)(F)C1)c1nc(-c2ccc(-c3ccc(-c4c[nH]c([C@@H](NC(=O)C5CC(F)(F)C5)C(C)(C)C)n4)cc3)cc2)c[nH]1 [Compound P-17] | >100 |
| CC(C)(C)[C@H](NC(=O)C(=O)O)c1nc(-c2ccc(-c3ccc(-c4c[nH]c([C@@H](NC(=O)C(=O)O)C(C)(C)C)n4)cc3)cc2)c[nH]1 [Compound W-44] | >10 |
| CCN(CC(F)(F)F)C(=O)C(=O)NC(c1nc(-c2ccc(-c3ccc(-c4c[nH]c(C(NC(=O)C(=O)N(CC)CC(F)(F)F)C(C)C)n4)cc3)cc2)c[nH]1)C(C)C (stereo not drawn) [Compound W-56] | >100 |
| CC(C)[C@H](NC(=O)C(F)F)c1ncc(-c2ccc(-c3ccc(-c4cnc([C@@H](NC(=O)C(F)F)C(C)C)[nH]4)cc3)cc2)[nH]1 [Compound S-11] | >100 |
| CC(C)COC(=O)N[C@H](c1ncc(-c2ccc(-c3ccc(-c4cnc([C@@H](NC(=O)OCC(C)C)C(C)C)[nH]4)cc3)cc2)[nH]1)C(C)C [Compound S-211] | >100 |
| CC(C)(NC(=O)OC1CCCCC1)C(=O)N[C@H](c1nc(-c2ccc(-c3ccc(-c4c[nH]c([C@@H](NC(=O)C(C)(C)NC(=O)OC5CCCCC5)C(C)(C)C)n4)cc3)cc2)c[nH]1)C(C)(C)C [Compound Q-6] | >100 |
| CO[C@H](C(=O)N[C@H](c1nc(-c2ccc(-c3ccc(-c4c[nH]c([C@@H](NC(=O)[C@@H](OC)c5ccccc5)C(C)(C)C)n4)cc3)cc2)c[nH]1)C(C)(C)C)c1ccccc1 [Compound P-18] | >100 |
| CC(C)C(NC(=O)C1(N2CCC(F)(F)CC2)COC1)c1nc(-c2ccc(-c3ccc(-c4c[nH]c(C(NC(=O)C5(N6CCC(F)(F)CC6)COC5)C(C)C)n4)cc3)cc2)c[nH]1 (stereo not drawn) [Compound W-64] | >100 |
| CC(C)(C)[C@H](NCC1CCCCC1)c1nc(-c2ccc(-c3ccc(-c4c[nH]c([C@@H](NCC5CCCCC5)C(C)(C)C)n4)cc3)cc2)c[nH]1.O=C(O)C(F)(F)F [Compound L-2] | >100 |
| CC(C)(C)OC(=O)N1CCCCC1(C)C(=O)N[C@H](c1nc(-c2ccc(-c3ccc(-c4c[nH]c([C@@H](NC(=O)C5(C)CCCCN5C(=O)OC(C)(C)C)C(C)(C)C)n4)cc3)cc2)c[nH]1)C(C)(C)C (single isomer, unassigned) [Compound L-46c] | >100 |
| CC(C)[C@H](NC(=O)c1ccc(Cl)cc1)c1ncc(-c2ccc(-c3ccc(-c4cnc([C@@H](NC(=O)c5ccc(Cl)cc5)C(C)C)[nH]4)cc3)cc2)[nH]1 [Compound S-83] | >100 |
| CC(C)(C)[C@H](NC(=O)Cc1ccc(F)cc1)c1nc(-c2ccc(-c3ccc(-c4c[nH]c([C@@H](NC(=O)Cc5ccc(F)cc5)C(C)(C)C)n4)cc3)cc2)c[nH]1 [Compound N-49] | >100 |
